Experimental data as given in US20070037756A1, “Compositions and methods for the prevention and treatment of circulatory conditions” (LEADTREK, INC, priority 2005, published 2007).

How the values were obtained:
Rat PRP = experiment: Assay of in Vitro Antiplatelet Aggregation (turbidimetry, rat PRP stimulated with ADP and collagen); format: cell-based; conditions: maximal aggregation induced by ADP and collagen
Experimental: Platelet aggregation was determined using methods and minor variations as described in Choo et al., Biol. Pharm. Bull. 25(10) 1328-1332 (2002) and Born et al., J. Physiol., 168, 178-195 (1963). For example, blood from rats was collected by cardiac puncture into a plastic flask containing 2.2% sodium citrate (1:9 v/v). Platelet-rich plasma (PRP) was prepared by centrifugation of the blood at 120×g for 15 min and further centrifuged at 850×g for 10 min to prepare platelet poor plasma (PPP). The supernatant was pooled and centrifuged at 600×g for 15 min at room temperature. The platelet pellets were washed with modified Tyrode-HEPES buffer (129 mM NaCl, 2.8 mM KCl, 8.9 mM NaHCO3, 0.8 mM MgCl2, 0.8 mM KH2PO4, 2 mM EGTA, 5.6 mM glucose, 10 mM HEPES, 0.35% BSA, pH 7.4) and centrifuged at 600×g for 15 min. Then platelet pellets were gently resuspended in Tyrode-HEPES buffer and used in the experiments.
Platelet aggregation was measured by turbidimetry using a dual-channel Whole Lumini-lonized Calcium Aggregometer (Chrono-Log Co., Ltd., Havertown, Pa., U.S.A.). Rat PRP ([…]) was incubated at 37° C. for 2 min in the aggregometer with stirring at 1200 rpm and then stimulated with ADP and collagen. […] Changes in light transmission were recorded for 10 min after stimulation with these agents. […]

male Sprague-Dawley rats = experiment: Animal Model (In Vivo) Assay For Platelet Aggregation Activity using arteriovenous shunts; parameters: species or system rat; conditions: oral; for Thrombus weight (newly formed thrombus wet weight): glycerol glucoside derivative 50, 100 mg/kg, aspirin 30 mg/kg x 4 times, 120 min after treatment, shunt 15 minutes, saline 12.9 mg
Experimental: Assays for platelet aggregation activity using arteriovenous shunts were carried out as provided in Umetsu et al., “Effect Of 1-Methyl-2-Mercapto-5(3-Pyridyl)-Imidazole (KC-6141), An Antiaggregation Compound, On Experimental Thrombosis In Rats” Thromb Haemostasis 39:74-83 (1978); and Tang et al., “Anti-Thrombotic Activity Of PDR, A Newly Synthesized L-Arg Derivative, On Three Thrombosis Models In Rats” Thrombosis Research 110:127-133 (2003). Briefly, male Sprague-Dawley rats weighing 320-380 g were used after overnight fasting. The rats were administered orally with: i) a negative control (isotonic saline): ii) a glycerol glucoside derivative (50, 100 mg/kg); and iii) a positive control compound, aspirin (30 mg/kg x 4 times). A 75 min period occurred between each dose to allow the return of homeostasis.
The left jugular vein and the right carotid artery were cannulated with a 4 cm long polyethylene tube (o.d. 1 mm) while being infused with 50 μ/kg i.v. heparin. These catheters were then connected to the ends of a 15 cm long polyethylene tube (o.d. 2 mm) containing a 5 cm long suture silk thread (no. 4). Before the silk thread was placed in the polyethylene tube a pre-treatment wet weight was determined (i.e., a pre-thrombus formation weight). At 120 min after each drug treatment, the blood flow through the shunt was measured for 15 minutes. The silk thread, now containing newly formed thrombi, was gently removed, and a post-treatment wet weight was measured immediately. The newly formed thrombus wet weight was determined by subtracting the pre-treatment silk wet weight from the post-treatment silk wet weight. Thrombus weight for saline was 12.9 mg, for BH-2 (Regaloside C (2)) was 8.8 mg, and for aspirin was 7.1 mg (see FIG. 12).
The rate of thrombosis inhibition was calculated with the equation as follows: % Thrombosis inhibition=(A−A1)/A×100%
Where A was the newly formed thrombus wet weight of the control group (i.e., Saline), and A1 was the newly formed thrombus wet weight of the test derivative or positive control compound (i.e., aspirin).

| SMILES | inhibition at 10 µM (Rat PRP) | % Thrombosis inhibition (male Sprague-Dawley rats; (A-A1)/A x 100% versus saline control, rat arteriovenous shunt) | Thrombus weight (newly formed thrombus wet weight) (male Sprague-Dawley rats) |
| --- | --- | --- | --- |
| O=C(O)c1cc(O)c2c(c1)C(=O)c1cccc(O)c1C2=O [rhein] | 1.8% | – | – |
| O=C(/C=C/c1ccc(O)c(O)c1)OC[C@@H](O)CO[C@@H]1O[C@H](CO)[C@@H](O)[C@H](O)[C@H]1O [BH-2, regaloside C] | – | 31.7% | 8.8 mg |
| CC(=O)Oc1ccccc1C(=O)O [aspirin, acetylsalicylic acid, reference compound] | – | – | 7.1 mg |
